# Measurements: patent US8541460B2, “PDK-1/Akt signaling inhibitors” (The Ohio State University, priority 2003, dated 2013)
# Legend:
# Type in all cases: cell-based
# T-47D = test: NCI DTP cell line screen (SRB), Breast Cancer
# Protocol: (§1) Screening of compounds 70 and 71 against several cancer cell lines The human tumor cell lines of the cancer screening panel are grown in RPMI 1640 medium containing 5% fetal bovine serum and 2 mM L-glutamine. For a typical screening experiment, cells are inoculated into 96 well microtiter plates in 100 μL at plating densities ranging from 5,000 to 40,000 cells/well depending on the doubling time of individual cell lines. After cell inoculation, the microtiter plates are incubated at 37° C., 5% CO2, 95% air and 100% relative humidity for 24 h prior to addition of experimental drugs.
# (§2) After 24 h, two plates of each cell line are fixed in situ with TCA, to represent a measurement of the cell population for each cell line at the time of drug addition (Tz). Experimental drugs are solubilized in dimethyl sulfoxide at 400-fold the desired final maximum test concentration and stored frozen prior to use. At the time of drug addition, an aliquot of frozen concentrate is thawed and diluted to twice the desired final maximum test concentration with complete medium containing 50 μg/ml gentamicin. Additional four, 10-fold or ½ log serial dilutions are made to provide a total of five drug concentrations plus control. Aliquots of 100 μl of these different drug dilutions are added to the appropriate microtiter wells already containing 100 μl of medium, resulting in the required final drug concentrations.
# (§3) Following drug addition, the plates are incubated for an additional 48 h at 37° C., 5% CO2, 95% air, and 100% relative humidity. For adherent cells, the assay is terminated by the addition of cold TCA. Cells are fixed in situ by the gentle addition of 50 μl of cold 50% (w/v) TCA (final concentration, 10% TCA) and incubated for 60 minutes at 4° C. The supernatant is discarded, and the plates are washed five times with tap water and air dried. Sulforhodamine B (SRB) solution (100 μl) at 0.4% (w/v) in 1% acetic acid is added to each well, and plates are incubated for 10 minutes at room temperature. After staining, unbound dye is removed by washing five times with 1% acetic acid and the plates are air dried. Bound stain is subsequently solubilized with 10 mM trizma base, and the absorbance is read on an automated plate reader at a wavelength of 515 nm. For suspension cells, the methodology is the same except that the assay is terminated by fixing settled cells at the bottom of the wells by gently adding 50 μl of 80% TCA (final concentration, 16% TCA). Using the seven absorbance measurements [time zero, (Tz), control growth, (C), and test growth in the presence of drug at the five concentration levels (Ti)], the percentage growth is calculated at each of the drug concentrations levels. Percentage growth inhibition is calculated as: [(Ti−Tz)/(C−Tz)]×100 for concentrations for which Ti>/=Tz [(Ti−Tz)/Tz]×100 for concentrations for which Ti<Tz
# (§4) Three dose response parameters are calculated for each experimental agent. […] The drug concentration resulting in total growth inhibition (TGI) is calculated from Ti=Tz. […] Values are calculated for each of these three parameters if the level of activity is reached; however, if the effect is not reached or is exceeded, the value for that parameter is expressed as greater or less than the maximum or minimum concentration tested.
# (§5) The methods described were used to test compounds 70 and 71 on a panel of sixty cell lines under a screening service provided by the Developmental Therapeutics Program at the National Institutes of Health. Shown in FIG. 1C are 1, RPMI-8226 leukemia cells; 2; NCI-H322M non-small cell lung cancer cells; 3, HT29 colon cancer cells; 4, U251 CNS cancer cells; 5, SK-MEL-28 melanoma cancer cells; 6, SK-OV-3 ovarian cancer cells; 7, RXF 393 renal cancer cells; 8, PC-3 prostate cancer cells; 9, MDA-MB-231 breast cancer cells.
# NCI/ADR-RES = test: NCI DTP cell line screen (SRB), Breast Cancer
# Protocol: as §1, §2, §3, §4, §5
# MDA-MB-231/ATCC = test: NCI DTP cell line screen (SRB), Breast Cancer
# Protocol: as §1, §2, §3, §4, §5
# HS 578T = test: NCI DTP cell line screen (SRB), Breast Cancer
# Protocol: as §1, §2, §3, §4, §5
# A549/ATCC = test: NCI DTP cell line screen (SRB), Non-Small Cell Lung Cancer
# Protocol: as §1, §2, §3, §4, §5
# HOP-62 = test: as above
# Protocol: as §1, §2, §3, §4, §5
# NCI-H23 = test: as above
# Protocol: as §1, §2, §3, §4, §5
# NCI-H460 = test: as above
# Protocol: as §1, §2, §3, §4, §5
compound,measurement,setting,value
"NCC(=O)Nc1ccc(-n2nc(C(F)(F)F)cc2-c2ccc3c(ccc4ccccc43)c2)cc1 [Compound 70, 2-Amino-N-{4-[5-(2-phenanthrenyl)-3-(trifluoromethyl)-1H-pyrazol-1-yl]-phenyl}-acetamide]",TGI,T-47D,4.21E−06
same,Percent Growth,T-47D; Log10 Concentration −4.0,−44%
same,Percent Growth,T-47D; Log10 Concentration −5.0,−52%
same,Percent Growth,T-47D; Log10 Concentration −6.0,86%
same,Percent Growth,T-47D; Log10 Concentration −7.0,109%
same,Percent Growth,T-47D; Log10 Concentration −8.0,84%
same,TGI,NCI/ADR-RES,2.85E−06
same,Percent Growth,NCI/ADR-RES; Log10 Concentration −4.0,−62%
same,Percent Growth,NCI/ADR-RES; Log10 Concentration −5.0,−59%
same,Percent Growth,NCI/ADR-RES; Log10 Concentration −6.0,49%
same,Percent Growth,NCI/ADR-RES; Log10 Concentration −7.0,98%
same,Percent Growth,NCI/ADR-RES; Log10 Concentration −8.0,98%
same,TGI,MDA-MB-231/ATCC,2.77E−06
same,Percent Growth,MDA-MB-231/ATCC; Log10 Concentration −4.0,−52%
same,Percent Growth,MDA-MB-231/ATCC; Log10 Concentration −5.0,−73%
same,Percent Growth,MDA-MB-231/ATCC; Log10 Concentration −6.0,58%
same,Percent Growth,MDA-MB-231/ATCC; Log10 Concentration −7.0,71%
same,Percent Growth,MDA-MB-231/ATCC; Log10 Concentration −8.0,100%
same,TGI,HS 578T; HS 578T,5.25E−06
same,Percent Growth,"HS 578T; HS 578T, Log10 Concentration −4.0",−38%
same,Percent Growth,"HS 578T; HS 578T, Log10 Concentration −5.0",−34%
same,Percent Growth,"HS 578T; HS 578T, Log10 Concentration −6.0",88%
same,Percent Growth,"HS 578T; HS 578T, Log10 Concentration −7.0",99%
same,Percent Growth,"HS 578T; HS 578T, Log10 Concentration −8.0",105%
same,CC50,"HS 578T; Homo sapiens, Hs-578T, read-out: LC50",> 100 µM
same,TGI,A549/ATCC,2.96E−06
same,Percent Growth,A549/ATCC; Log10 Concentration −4.0,−31%
same,Percent Growth,A549/ATCC; Log10 Concentration −5.0,−57%
same,Percent Growth,A549/ATCC; Log10 Concentration −6.0,51%
same,Percent Growth,A549/ATCC; Log10 Concentration −7.0,86%
same,Percent Growth,A549/ATCC; Log10 Concentration −8.0,102%
same,TGI,HOP-62,3.01E−06
same,Percent Growth,HOP-62; Log10 Concentration −4.0,−57%
same,Percent Growth,HOP-62; Log10 Concentration −5.0,−70%
same,Percent Growth,HOP-62; Log10 Concentration −6.0,64%
same,Percent Growth,HOP-62; Log10 Concentration −7.0,93%
same,Percent Growth,HOP-62; Log10 Concentration −8.0,90%
same,TGI,NCI-H23,2.87E−06
same,Percent Growth,NCI-H23; Log10 Concentration −4.0,−66%
same,Percent Growth,NCI-H23; Log10 Concentration −5.0,−79%
same,Percent Growth,NCI-H23; Log10 Concentration −6.0,67%
same,Percent Growth,NCI-H23; Log10 Concentration −7.0,102%
same,Percent Growth,NCI-H23; Log10 Concentration −8.0,101%
same,TGI,NCI-H460,2.64E−06
same,Percent Growth,NCI-H460; Log10 Concentration −4.0,−33%
same,Percent Growth,NCI-H460; Log10 Concentration −5.0,−46%
same,Percent Growth,NCI-H460; Log10 Concentration −6.0,34%
same,Percent Growth,NCI-H460; Log10 Concentration −7.0,77%
same,Percent Growth,NCI-H460; Log10 Concentration −8.0,97%
